Some test systems named below: PC-3; Hs-578T; NCI/ADR-RES; SN12C; CAKI-1; SNB-19; HOP-92; SNB-75; ACHN; SK-MEL-5; UACC-257; IGROV-1; OVCAR-3; A498; UO-31; U-251; Malme-3M; HCC 2998; OVCAR-4.
Experiment in all cases: NCI tumour cell line growth inhibition, 48 h

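The compound was tested at five concentrations on cells cultured in 96-well plates, with a 48-hour exposure period. GI50 = concentration required for 50% inhibition of growth.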 Active and inactive are the calls of the source. Rule as the data show it: active = GI50 up to about 1.1 µM and inactive = higher. Bounds are passed on as bounds.

As for `O=C(CC(=O)Nc1ccccc1Cl)NNC(c1cc(/N=N/c2ccc(Br)cc2)ccc1O)P(O)O` (centres undefined), the GI50 was 0.521 µM (active) in the assay on PC-3; > 10 µM (inactive) in the assay on Hs-578T; 1.07 µM (active) in the assay on NCI/ADR-RES; 1.6 µM (inactive) in the assay with SN12C; 1.36 µM (inactive) in the assay with CAKI-1; 4.1 µM (inactive) in the assay with SNB-19. The GI50 with HOP-92 was 5.98 µM (inactive); in the assay on SNB-75 it was 1.62 µM (inactive); in the assay with ACHN, 0.813 µM (active); in the assay with SK-MEL-5 it was 1.19 µM (inactive); with UACC-257 it was 3.2 µM (inactive); with IGROV-1 it was 6.9 µM (inactive). Further, the GI50 was 0.348 µM (active) in the assay on OVCAR-3; 2.27 µM (inactive) in the assay on A498; 0.995 µM (active) in the assay on UO-31; 1.54 µM (inactive) with U-251; 3.6 µM (inactive) with Malme-3M; 3.8 µM (inactive) in the assay with HCC 2998. In addition, in the assay on OVCAR-4, the GI50 is 2.34 µM (inactive).
For `CCc1nc(Cl)nc(Cl)c1Cl`, the GI50 with PC-3 is 1.26 µM (inactive); with Hs-578T, 2.6 µM (inactive); in the assay on NCI/ADR-RES it was 2.52 µM (inactive); in the assay on SN12C it was 2.22 µM (inactive); with CAKI-1, 0.193 µM (active); in the assay with SNB-19 it was 3.59 µM (inactive). The GI50 with HOP-92 was 2.11 µM (inactive); in the assay on SNB-75, 5.53 µM (inactive); in the assay with ACHN, 0.34 µM (active); with SK-MEL-5, 2.56 µM (inactive); with UACC-257, 0.547 µM (active); with IGROV-1, 3.72 µM (inactive). Also, the GI50 in the assay on OVCAR-3 is 0.535 µM (active); in the assay with A498, 4.94 µM (inactive); with UO-31, 0.276 µM (active); in the assay with U-251, 1.39 µM (inactive); with Malme-3M it was 0.445 µM (active); in the assay on HCC 2998, 0.706 µM (active). Further, the GI50 in the assay on OVCAR-4 was 0.553 µM (active).
For the compound `COc1cc(I)c2c3c1OC1C34CCN(C)C(C2)C4=CC(I)C1(OC)OC` (centres undefined), the GI50 is 24.4 µM (inactive) in the assay on PC-3; 53.2 µM (inactive) with Hs-578T; 28.2 µM (inactive) with NCI/ADR-RES; 16.3 µM (inactive) in the assay on SN12C; 22.4 µM (inactive) with CAKI-1; 27.4 µM (inactive) in the assay on SNB-19. For the same compound, the GI50 in the assay with HOP-92 is 13.1 µM (inactive); in the assay with SNB-75 it was 15.9 µM (inactive); in the assay with ACHN, 27 µM (inactive); in the assay with SK-MEL-5 it was 17.1 µM (inactive); with UACC-257, 19.3 µM (inactive); in the assay on IGROV-1, 20.1 µM (inactive). Moreover, the GI50 was 19.2 µM (inactive) in the assay on OVCAR-3; 32.2 µM (inactive) with A498; 18.4 µM (inactive) in the assay on UO-31; 18.3 µM (inactive) in the assay with U-251; 20.7 µM (inactive) in the assay on Malme-3M; 15.3 µM (inactive) in the assay on HCC 2998. Further, the GI50 in the assay on OVCAR-4 is 15 µM (inactive).
In the case of `CCOC(=O)C(=[N+]=[N-])C(=O)C[N+]12CCN(CC1)CC2`, the GI50 in the assay on PC-3, with Hs-578T, with NCI/ADR-RES, with SN12C, in the assay with CAKI-1 and in the assay on SNB-19 was > 100 µM (inactive) throughout. Moreover, the GI50 in the assay on HOP-92, with SNB-75, in the assay on ACHN, with SK-MEL-5, in the assay on UACC-257 and in the assay on IGROV-1 was > 100 µM (inactive) each time. Also, the GI50 in the assay on OVCAR-3, with A498, with UO-31, in the assay on U-251, with Malme-3M and in the assay with HCC 2998 was > 100 µM (inactive) each time. For the same compound, in the assay with OVCAR-4, the GI50 was > 100 µM (inactive).
Turning to `COc1ccc2c(-c3ccc(O)cc3)c(Oc3ccc(Cl)cc3)c(=O)oc2c1`, the GI50 with PC-3 was 7.69 µM (inactive); in the assay with Hs-578T it was 5.62 µM (inactive); in the assay with NCI/ADR-RES, > 19.8 µM (inactive); with SN12C it was 4.6 µM (inactive); in the assay on CAKI-1 it was 2.81 µM (inactive); in the assay with SNB-19 it was 3.89 µM (inactive). Besides, the GI50 was 7.87 µM (inactive) with HOP-92; 13.2 µM (inactive) in the assay with SNB-75; 8.11 µM (inactive) with ACHN; 3.48 µM (inactive) in the assay on SK-MEL-5; 8.95 µM (inactive) in the assay with UACC-257; 3.03 µM (inactive) with IGROV-1. In addition, the GI50 was 3.57 µM (inactive) in the assay with OVCAR-3; 6.79 µM (inactive) in the assay with A498; 1.14 µM (inactive) in the assay with UO-31; 6.15 µM (inactive) in the assay with U-251; 4.76 µM (inactive) with Malme-3M; 10.8 µM (inactive) in the assay with HCC 2998. Further, the GI50 in the assay with OVCAR-4 was 5.77 µM (inactive).
Regarding `OC(C/C=N/N=C/CC(O)(C(F)(F)Cl)C(F)(F)Cl)(C(F)(F)Cl)C(F)(F)Cl`, the GI50 with PC-3, with Hs-578T, in the assay with NCI/ADR-RES, in the assay with SN12C, in the assay with CAKI-1 and in the assay on SNB-19 was > 10 µM (inactive) each time. The GI50 was 7.19 µM (inactive) in the assay with HOP-92; > 10 µM (inactive) in the assay with SNB-75; > 10 µM (inactive) in the assay on ACHN; > 10 µM (inactive) in the assay on SK-MEL-5; > 10 µM (inactive) in the assay with UACC-257; > 10 µM (inactive) with IGROV-1. Further, the GI50 in the assay with OVCAR-3, in the assay on A498, in the assay with UO-31, in the assay on U-251, with Malme-3M and in the assay with HCC 2998 was > 10 µM (inactive) throughout. Besides, the GI50 with OVCAR-4 was > 10 µM (inactive).
With `COC(=O)C1=C(C(=O)OC)SC2(S1)C(C(=O)OC)=C(C(=O)OC)Sc1c2ss/c1=N/C(C)(C)C`, the GI50 in the assay on PC-3 was 1.26 µM (inactive); with Hs-578T, 4.32 µM (inactive); in the assay with NCI/ADR-RES, 2.5 µM (inactive); in the assay on SN12C, 1.22 µM (inactive); in the assay with CAKI-1, 1.53 µM (inactive); in the assay on SNB-19, 2.13 µM (inactive). For the same compound, the GI50 in the assay on HOP-92 was 1.3 µM (inactive); in the assay on SNB-75 it was 1.45 µM (inactive); in the assay with ACHN, 1.74 µM (inactive); with SK-MEL-5, 1.91 µM (inactive); in the assay with UACC-257, 1.47 µM (inactive); with IGROV-1, 1.4 µM (inactive). Moreover, the GI50 in the assay with OVCAR-3 was 1.67 µM (inactive); in the assay on A498, 1.92 µM (inactive); with UO-31 it was 1.92 µM (inactive); with U-251, 1.72 µM (inactive); in the assay with Malme-3M, 2.18 µM (inactive); in the assay on HCC 2998, 1.08 µM (active). The GI50 in the assay with OVCAR-4 was 1.79 µM (inactive).
Turning to `COc1ccc(Nc2nc3ccccc3nc2C(=O)O)cc1`, the GI50 in the assay on PC-3 is > 100 µM (inactive); in the assay on Hs-578T it was 16 µM (inactive); in the assay on NCI/ADR-RES, 38.9 µM (inactive); in the assay on SN12C, 80.2 µM (inactive); with CAKI-1, 46.6 µM (inactive); in the assay on SNB-19, > 100 µM (inactive). Moreover, the GI50 was > 100 µM (inactive) in the assay with HOP-92; 59.7 µM (inactive) in the assay on SNB-75; 55 µM (inactive) with ACHN; 37.2 µM (inactive) in the assay with SK-MEL-5; > 100 µM (inactive) in the assay with UACC-257; 87.9 µM (inactive) in the assay with IGROV-1. In addition, the GI50 with OVCAR-3 is 65.9 µM (inactive); in the assay with A498, > 100 µM (inactive); in the assay on UO-31, 40 µM (inactive); in the assay on U-251 it was 64.3 µM (inactive); in the assay with Malme-3M it was > 100 µM (inactive); in the assay with HCC 2998 it was 3.46 µM (inactive). In addition, the GI50 with OVCAR-4 was > 100 µM (inactive).
For `O=c1oc2c(ccc3c(O)cccc32)c2c1CCCC2`, the GI50 was > 100 µM (inactive) in the assay on PC-3; 7.46 µM (inactive) in the assay with Hs-578T; 46 µM (inactive) in the assay with NCI/ADR-RES; > 100 µM (inactive) in the assay with SN12C; 32.2 µM (inactive) with CAKI-1; 27.7 µM (inactive) in the assay on SNB-19. In addition, the GI50 in the assay on HOP-92 is 16.6 µM (inactive); with SNB-75 it was 4.85 µM (inactive); with ACHN it was 26.8 µM (inactive); with SK-MEL-5 it was 47.2 µM (inactive); with UACC-257 it was > 100 µM (inactive); with IGROV-1, > 100 µM (inactive). In addition, the GI50 in the assay on OVCAR-3 is > 100 µM (inactive); in the assay with A498, 27.7 µM (inactive); in the assay with UO-31, 21.1 µM (inactive); in the assay with U-251 it was 15 µM (inactive); in the assay on Malme-3M, 68.9 µM (inactive); in the assay on HCC 2998, 5.61 µM (inactive). Also, in the assay with OVCAR-4, the GI50 is > 100 µM (inactive).
`COc1ccc2cc(C(C)C(=O)N3CCOC3=O)ccc2c1` (centres undefined): the GI50 in the assay on PC-3, with Hs-578T, in the assay with NCI/ADR-RES, in the assay with SN12C, in the assay with CAKI-1 and with SNB-19 was > 100 µM (inactive) in each case. Further, the GI50 in the assay on HOP-92 is > 100 µM (inactive); with SNB-75, 44.7 µM (inactive); in the assay with ACHN it was > 100 µM (inactive); with SK-MEL-5 it was > 100 µM (inactive); in the assay with UACC-257 it was > 100 µM (inactive); with IGROV-1, > 100 µM (inactive). For the same compound, the GI50 is > 100 µM (inactive) in the assay with OVCAR-3; 71.4 µM (inactive) with A498; > 100 µM (inactive) in the assay with UO-31; > 100 µM (inactive) in the assay with U-251; > 100 µM (inactive) in the assay with Malme-3M; > 100 µM (inactive) with HCC 2998. The GI50 in the assay on OVCAR-4 was > 100 µM (inactive).
`Nc1ccc(-c2nc3cc(F)ccc3s2)cc1`: the GI50 in the assay with PC-3 is 16.5 µM (inactive); in the assay with Hs-578T, 37.7 µM (inactive); with NCI/ADR-RES it was > 100 µM (inactive); in the assay on SN12C, > 100 µM (inactive); in the assay on CAKI-1, 27.7 µM (inactive); in the assay with SNB-19 it was > 100 µM (inactive). The GI50 was 23.1 µM (inactive) in the assay on HOP-92; 11.2 µM (inactive) with SNB-75; 20.6 µM (inactive) in the assay with ACHN; 61.4 µM (inactive) in the assay on SK-MEL-5; > 43.4 µM (inactive) in the assay with UACC-257; 13 µM (inactive) in the assay on IGROV-1. Besides, the GI50 in the assay with OVCAR-3 was > 90.2 µM (inactive); with A498, 33.5 µM (inactive); in the assay on UO-31 it was > 60 µM (inactive); in the assay with U-251, 39.4 µM (inactive); in the assay on Malme-3M, > 100 µM (inactive); in the assay with HCC 2998, 26.3 µM (inactive). Also, the GI50 with OVCAR-4 was > 36.7 µM (inactive).

(Values after ChEMBL document CHEMBL1201862, “PubChem BioAssay data set” (2004).)
